Columns and labels:
[1] = system: ZR-75-1 cells; test: Estrogenic activity: stimulation of proliferation of ZR-75-1 cells; format: cell-based, human
Experimental: […] The manner in which the stimulation is determined is described in “Other Tests; C-Estrogenic/Antiestrogenic activity” Lower numbers are desirable. ND means that a determination was not done.
Estrogenic/antiestrogenic activity of some preferred compounds has been measured using the […] human breast cancer cell line as described in more detail below.
All media and medium supplments were purchased from Sigma. Cells were subcultured weekly by treatment with a pancreatic solution containing EDTA (0.2 g/L). The cell cultures used for the experiments herein describied were between passages 89 and 94.
Cells in their logarithmic growth phase were harvested, briefly centrifuged, and resuspended in RPMI 1640. Cells were then plated in triplicate in LIMBRO 24-well plastic culture plates (2 cm^2/well). Since plating density influences the effect of hormones on ZR-75-1 cell growth, cells were plated at a density of 1×10^4 cells/well. […] Control cultures received the ethanol vehicle only. Cells were then allowed to grow at 37° C. for 10 days with medium changes (of identical composition) every 2 days.
After E2 and/or antiestrogen treatment, cells were harvested by addition of 0.5 ml of a pancreatin solution (Sigma) for 5-10 min at 37° C. before addition of 0.5 mnl of RPMI 1640 containing 5% dextran coated […] bovine serum in order to block enzymatic action. Cell number (0.10 ml aliquot) was determined by measurement of DNA content as previously described (Simard et al., Endocrinology 126: 3223-3231,1990).

[2] = target: T1, estrogen receptor (Rattus norvegicus, UniProt P06211); test: Estrogen receptor (ER) assay: inhibition of [3H]E2 binding, uterine cytosol
T1 construct: from tissue; host or cells: uterine cytosol of gonadectomized female Sprague-Dawley rats
T1 sequence (P06211 1-600): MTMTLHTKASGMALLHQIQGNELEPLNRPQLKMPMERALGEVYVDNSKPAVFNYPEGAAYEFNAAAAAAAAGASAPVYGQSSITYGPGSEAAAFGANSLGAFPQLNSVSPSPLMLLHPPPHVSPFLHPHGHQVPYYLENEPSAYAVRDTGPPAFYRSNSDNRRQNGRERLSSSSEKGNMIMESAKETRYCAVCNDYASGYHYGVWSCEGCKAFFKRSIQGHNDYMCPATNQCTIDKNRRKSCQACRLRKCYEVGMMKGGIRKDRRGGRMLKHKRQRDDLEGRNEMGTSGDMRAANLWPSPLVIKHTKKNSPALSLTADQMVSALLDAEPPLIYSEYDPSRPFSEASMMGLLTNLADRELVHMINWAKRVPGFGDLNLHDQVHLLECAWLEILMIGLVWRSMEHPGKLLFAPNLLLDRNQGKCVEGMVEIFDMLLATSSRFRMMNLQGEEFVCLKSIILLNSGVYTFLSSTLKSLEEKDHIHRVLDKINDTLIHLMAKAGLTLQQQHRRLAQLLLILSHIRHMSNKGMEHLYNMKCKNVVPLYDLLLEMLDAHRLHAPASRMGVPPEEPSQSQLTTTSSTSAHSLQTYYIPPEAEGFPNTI
Experimental: Female Sprague-Dawley rats (Crl: CD(SD)Br) weighing 200-300 g were obtained from Charles-River Inc. (St-Constant, Québec, Canada). The rats were gonadectomized under general anesthesia (Isoflurane) and killed by cervical dislocation 24 hours later. The uteri were rapidly removed, dissected free from adhering tissue and frozen on dry-ice. Uteri were kept at −80° C. until assay. All subsequent steps were performed at 0-4° C. Uteri were homogenized in 10 vol (wt/vol) of buffer A (25 mM Tris-HCI, 1.5 mM EDTA disodium salt, 10 mM α-monothioglycerol, 10% glycerol, and 10 mM sodium molybdate, pH 7.4), using a Polytron PT-10 homogenizer (Brinkman Instruments, Canada) at a setting of 5 for three periods of 10 sec, with intervals of 10 sec for cooling. The homogenate was then centrifuged at 105,000×g for 60 min in a Beckman L5-65 ultracentrifuge (Fullerton, Calif.). The protein concentration of the cytosol fraction was measured according to the method of Bradford (Anal. Biochem. 72: 248-254, 1976), using bovine serum albumin as standard.
Estrogen binding was measured using the dextran-coated charcoal adsorption technique as described previously (Asselin et al., Endocrinology, 101: 666-671, 1977; Asselin and Labrie, J. Steroid Biochem., 9: 1079-1082, 1978). Briefly, [^3H]E2 solubilized in ethanol were diluted into buffer A. Aliquots of uterine cytosol preparation (0.1 ml) were incubated with 5 nM [^3H]E2 (˜200,000 cpm, 0.1 ml) in the presence or absence of the indicated concentrations of unlabeled compounds (0.1 ml, prepared in buffer A containing 10% ethanol) for 3 h at room temperature. Unbound steroids were then separated by incubation for 15 min at 0-4° C. with 0.3 ml 0.5% Norit-A and 0.05% Dextran T-70 in buffer B (1.5 mM EDTA disodium salt, 10 mM monothioglycerol, and 10 mM Tris-HCI, pH 7.4) and centrifuged at 3,000×g for 15 min. Aliquots of the supernatant (0.3 ml) were removed for radioactivity measurement.

| Compound | ZR-75-1 Activity, Basal E^−6 [1] | ZR-75-1 Activity, Basal E^−8 [1] | % Inhibition Estrogen Receptor E^−6 [2] | % Inhibition Estrogen Receptor E^−8 [2] | ZR-75-1 Activity, Basal E^−6 ([1]; Table 4′) | ZR-75-1 Activity, Basal E^−8 ([1]; Table 4′) | % Inhibition Estrogen Receptor E^−6 ([2]; Table 4′) | % Inhibition Estrogen Receptor E^−8 ([2]; Table 4′) |
| --- | --- | --- | --- | --- | --- | --- | --- | --- |
| CCC[C@@H]1CC2C3C=CC4=CC(=O)CC[C@]4(C)C3CC[C@]2(C)C1=O (some centres unmarked) [EM-1097] | 10 | −8 | 1% | 0% |  |  |  |  |
| COCCOc1ccc2c(c1)CCC1C2CCC2(C)C1CCC21CCC(C)(C)C(=O)O1 [EM-1368-CS, 3-Methoxyethoxy-1,3,5(10)-estratrien-17(R)-spiro-2′-(5′,5′-dimethyl-6′-oxo)-tetrahydropyran] |  |  |  |  | +15% | 0% | 0% | 0% |
| CC1(C)CC[C@@]2(CCC3C4CCc5cc(C(N)=O)ccc5C4CCC32C)OC1=O (some centres unmarked) [EM-1404] |  |  |  |  | 0% | 0% | 0% | 0% |
| CC12C=CC(=O)C=C1C=CC1C2CCC2(C)C(=O)C3(CCCCC3)CC12 (centres unmarked) [CS-204] | 0 | 0 | 0% | 0% |  |  |  |  |
| COCCOc1cc2c(cc1C(N)=O)C1CC[C@@]3(C)C(CC[C@@]34CCC(C)(C)C(=O)O4)C1CC2 (stereo partly drawn) [EM-1424, 2-Carbamoyl-3-(2″-methoxyethyloxy)-1,3,5(10)-estratrien 17(R)-spiro-2′-(5′,5′-dimethyl-6′-oxo)tetrahydropyran] |  |  |  |  | 0% | 0% | 3% | 3% |
| COc1ccc2c(c1)C(=O)CC1C3CCC4(CCC(C)(C)C(=O)O4)C3(C)CCC21O (centres unmarked) [EM-1386] |  |  |  |  | −12% | 0% | 0% | 3% |
| CC1CCC2(CCC3C4CCc5ccccc5C4CCC32C)OC1=O (centres unmarked) [EM-1025] |  |  |  |  | 201% | 20% | 4% | 1% |
| CC1CCC2(CCC3C4CCc5cc(O)c([N+](=O)[O-])cc5C4CCC32C)OC1=O [EM-1131, 2-Nitro-1,3,5(10)-estratrien-3-ol-17(R)-spiro-2′-(5′-methyl-6′-oxo)tetrahydropyran] |  |  |  |  | 15% | 7% | 3% | 5% |
